{"source": "ChEMBL document CHEMBL5154879", "about": "“Induction of Genes Implicated in Stress Response and Autophagy by a Novel Quinolin-8-yl-nicotinamide QN523 in Pancreatic Cancer” (J Med Chem, 2022)", "key": {"[1]": {"tested_on": "MIA PaCa-2", "assay": "Induction of apoptosis in human MIA PaCa-2 cells assessed as live cells at 0.5 uM incubated for 24 hrs by Annexin V-FITC/PI staining based flow cytometry analysis (reference value: 90.2%)", "format": "functional"}, "[2]": {"assay": "Upregulation of UPP1 gene expression in human MIA PaCa-2 cells assessed as fold change in UPP1 expression at 1 uM incubated for 24 hrs by Bru-seq analysis relative to control", "format": "functional"}, "[3]": {"assay": "Downregulation of CCDC85C gene expression in human MIA PaCa-2 cells assessed as fold change in CCDC85C expression at 1 uM incubated for 24 hrs by Bru-seq analysis relative to control", "format": "functional"}, "[4]": {"assay": "Toxicity in NOD/SCID mouse xenografted with human MIA PaCa-2 cells assessed as weakness at 10 to 20 mg/kg, ip administered five times a week for 44 days", "format": "organism-based", "settings": "in vivo, 1056 h, dose 10-20 mg/kg, time 44 day"}, "[5]": {"tested_on": "MIA PaCa-2", "assay": "Induction of apoptosis in human MIA PaCa-2 cells assessed as necrotic cells at 0.1 uM incubated for 48 hrs by Annexin V-FITC/PI staining based flow cytometry analysis (reference value: 1.07%)", "format": "functional"}, "[6]": {"assay": "Downregulation of PLEKHG3 gene expression in human MIA PaCa-2 cells assessed as fold change in PLEKHG3 expression at 1 uM incubated for 24 hrs by Bru-seq analysis relative to control", "format": "functional"}, "[7]": {"tested_on": "MIA PaCa-2", "assay": "Synergistic autophagy activity in human MIA PaCa-2 cells assessed as inhibition of colony formation at 0.001 to 0.1 uM incubated for 7 days in presence of autophagy inhibitor chloroquine by crystal violet staining based assay", "format": "functional, cell-based", "settings": "dose 0.001-0.1 µM, time 7.0 day"}, "[8]": {"tested_on": "MIA PaCa-2", "assay": "Induction of apoptosis in human MIA PaCa-2 cells assessed as early apoptotic cells at 0.1 uM incubated for 24 hrs by Annexin V-FITC/PI staining based flow cytometry analysis (reference value: 5.1%)", "format": "functional"}, "[9]": {"assay": "Toxicity in NOD/SCID mouse xenografted with human MIA PaCa-2 cells assessed as lethargy at 10 to 20 mg/kg, ip administered five times a week for 44 days", "format": "organism-based", "settings": "in vivo, 1056 h, dose 10-20 mg/kg, time 44 day"}, "[10]": {"assay": "Upregulation of ARG2 gene expression in human MIA PaCa-2 cells assessed as fold change in ARG2 expression at 1 uM incubated for 24 hrs by Bru-seq analysis relative to control", "format": "functional"}, "[11]": {"assay": "Downregulation of RGS3 gene expression in human MIA PaCa-2 cells assessed as fold change in RGS3 expression at 1 uM incubated for 24 hrs by Bru-seq analysis relative to control", "format": "functional"}, "[12]": {"tested_on": "MIA PaCa-2", "assay": "Induction of apoptosis in human MIA PaCa-2 cells assessed as early apoptotic cells at 0.1 uM incubated for 48 hrs by Annexin V-FITC/PI staining based flow cytometry analysis (reference value: 1.8%)", "format": "functional"}, "[13]": {"assay": "Downregulation of FASN gene expression in human MIA PaCa-2 cells assessed as fold change in FASN expression at 1 uM incubated for 24 hrs by Bru-seq analysis relative to control", "format": "functional"}, "[14]": {"tested_on": "MIA PaCa-2", "assay": "Additive autophagy activity in human MIA PaCa-2 cells assessed as inhibition of colony formation at 0.001 to 0.1 uM incubated for 7 days in presence of autophagy inhibitor chloroquine by crystal violet staining based assay", "format": "functional, cell-based", "settings": "dose 0.001-0.1 µM, time 7.0 day"}, "[15]": {"tested_on": "MIA PaCa-2", "assay": "Induction of cell cycle arrest in human MIA PaCa-2 cells assessed as accumulation of cells in G0/G1 phase at 0.1 uM incubated for 48 hrs by RNase/propidium iodide staining based flow cytometry analysis (reference value: 70.4%)", "format": "functional"}, "[16]": {"assay": "Downregulation of ESPL1 gene expression in human MIA PaCa-2 cells assessed as fold change in ESPL1 expression at 1 uM incubated for 24 hrs by Bru-seq analysis relative to control", "format": "functional"}, "[17]": {"assay": "Downregulation of P1F1 gene expression in human MIA PaCa-2 cells assessed as fold change in P1F1 expression at 1 uM incubated for 24 hrs by Bru-seq analysis relative to control", "format": "functional"}, "[18]": {"tested_on": "MIA PaCa-2", "assay": "Antiproliferative activity against human MIA PaCa-2 cells assessed as inhibition of cell growth at 0.1 to 10 uM incubated for 1 to 72 hrs followed by compound washout with PBS and replacement with fresh culture medium and measured after 72 hrs by MTT assay", "format": "functional, cell-based", "settings": "dose 0.1-10 µM, time 1-72 hrs, TDE = time-dependent effect"}, "[19]": {"tested_on": "MIA PaCa-2", "assay": "Induction of apoptosis in human MIA PaCa-2 cells assessed as necrotic cells at 0.1 uM incubated for 24 hrs by Annexin V-FITC/PI staining based flow cytometry analysis (reference value: 2.7%)", "format": "functional"}, "[20]": {"tested_on": "MIA PaCa-2", "assay": "Upregulation of ATF3 gene expression in human MIA PaCa-2 cells incubated for 72 hrs by Western blot analysis", "format": "functional, cell-based", "settings": "dose <= 600.0 µM, DDE = dose-dependent effect"}, "[21]": {"tested_on": "MIA PaCa-2", "assay": "Antitumor activity against human MIA PaCa-2 cells xenografted in NOD/SCID mouse assessed as tumor growth delay at 20 mg/kg, ip administered five times a week starting from day 10 to 44 post first dose and measured from day 17", "format": "functional, organism-based", "settings": "time 44.0 day"}, "[22]": {"tested_on": "PANC-1", "assay": "Inhibition of colony formation in human PANC-1 cells at 1 uM incubated for 10 to 14 days by crystal violet staining based assay", "format": "functional, cell-based", "settings": "time 10-14 day"}, "[23]": {"assay": "Downregulation of HMG20B gene expression in human MIA PaCa-2 cells assessed as fold change in HMG20B expression at 1 uM incubated for 24 hrs by Bru-seq analysis relative to control", "format": "functional"}, "[24]": {"assay": "Downregulation of LAMA5 gene expression in human MIA PaCa-2 cells assessed as fold change in LAMA5 expression at 1 uM incubated for 24 hrs by Bru-seq analysis relative to control", "format": "functional"}, "[25]": {"tested_on": "MIA PaCa-2", "assay": "Induction of cell cycle arrest in human MIA PaCa-2 cells assessed as accumulation of cells in G2/M phase at 0.5 uM incubated for 24 hrs by RNase/propidium iodide staining based flow cytometry analysis (reference value: 8.11%)", "format": "functional"}, "[26]": {"tested_on": "MIA PaCa-2", "assay": "Upregulation of HSPA5 gene expression in human MIA PaCa-2 cells incubated for 72 hrs by Western blot analysis", "format": "functional, cell-based", "settings": "DDE = dose-dependent effect"}, "[27]": {"assay": "Downregulation of TACC3 gene expression in human MIA PaCa-2 cells assessed as fold change in TACC3 expression at 1 uM incubated for 24 hrs by Bru-seq analysis relative to control", "format": "functional"}, "[28]": {"assay": "Toxicity in NOD/SCID mouse xenografted with human MIA PaCa-2 cells assessed as weight loss at 10 to 20 mg/kg, ip administered five times a week for 44 days", "format": "organism-based", "settings": "in vivo, 1056 h, dose 10-20 mg/kg, time 44 day"}, "[29]": {"assay": "Downregulation of STK1I gene expression in human MIA PaCa-2 cells assessed as fold change in STK1I expression at 1 uM incubated for 24 hrs by Bru-seq analysis relative to control", "format": "functional"}, "[30]": {"assay": "Cytotoxicity against HEK293 cells assessed as inhibition of cell growth incubated for 72 hrs by MTT assay", "format": "toxicity, cell-based", "settings": "human"}, "[31]": {"assay": "Downregulation of NEURLIB gene expression in human MIA PaCa-2 cells assessed as fold change in NEURLIB expression at 1 uM incubated for 24 hrs by Bru-seq analysis relative to control", "format": "functional"}, "[32]": {"tested_on": "MIA PaCa-2", "assay": "Upregulation of hypoxia in human MIA PaCa-2 cells by gene set enrichment analysis", "format": "functional, cell-based"}}, "note": "Active and inactive are the calls of the source. The calls are words filed in the database; no cut-off is given here.", "data": [{"smiles": "O=C(Nc1cccc2cccnc12)c1cnccn1", "values": [{"measurement": "Activity", "setting": "[1]", "value": 86.2, "unit": "%"}, {"measurement": "fold change (FC)", "setting": "[2]", "value": 18.2}, {"measurement": "fold change (FC)", "setting": "[3]", "value": 0.42}, {"measurement": "Activity", "setting": "[4]", "value": "Non-Toxic"}, {"measurement": "Activity", "setting": "[5]", "value": 1.1, "unit": "%"}, {"measurement": "fold change (FC)", "setting": "[6]", "value": 0.39}, {"measurement": "Activity", "setting": "[7]", "value": "Active"}, {"measurement": "Activity", "setting": "[8]", "value": 10.7, "unit": "%"}, {"measurement": "Activity", "setting": "[9]", "value": "Non-Toxic"}, {"measurement": "fold change (FC)", "setting": "[10]", "value": 12}, {"measurement": "fold change (FC)", "setting": "[11]", "value": 0.46}, {"measurement": "Activity", "setting": "[12]", "value": 5.5, "unit": "%"}, {"measurement": "fold change (FC)", "setting": "[13]", "value": 0.41}, {"measurement": "Activity", "setting": "[14]", "value": "Active"}, {"measurement": "Activity", "setting": "[15]", "value": 62.4, "unit": "%"}, {"measurement": "fold change (FC)", "setting": "[16]", "value": 0.4}, {"measurement": "fold change (FC)", "setting": "[17]", "value": 0.28}, {"measurement": "Activity", "setting": "[18]", "value": "Tde"}, {"measurement": "Activity", "setting": "[19]", "value": 2.2, "unit": "%"}, {"measurement": "Activity", "setting": "[20]", "value": "Dde"}, {"measurement": "Activity", "setting": "[21]", "value": "Active"}, {"measurement": "inhibition", "setting": "[22]", "value": "Active"}, {"measurement": "fold change (FC)", "setting": "[23]", "value": 0.33}, {"measurement": "fold change (FC)", "setting": "[24]", "value": 0.42}, {"measurement": "Activity", "setting": "[25]", "value": 10.5, "unit": "%"}, {"measurement": "Activity", "setting": "[26]", "value": "Dde"}, {"measurement": "fold change (FC)", "setting": "[27]", "value": 0.45}, {"measurement": "Activity", "setting": "[28]", "value": "Non-Toxic"}, {"measurement": "fold change (FC)", "setting": "[29]", "value": 0.4}, {"measurement": "IC50 at 72 h", "setting": "[30]", "value": 0.15, "unit": "µM"}, {"measurement": "fold change (FC)", "setting": "[31]", "value": 0.44}, {"measurement": "Activity", "setting": "[32]", "value": "Active"}]}]}
